The record followed here is patent US20250145619A1, “KHK INHIBITOR, PREPARATION METHOD THEREFOR AND USE THEREOF” (YOUNGENE THERAPEUTICS CO., LTD, priority 2022, published 2025).

In general, IC50 refers to the midpoint of a concentration-inhibition curve. Read a high IC50 as weaker potency.

Chain of KHK—C (P50053 whole entry): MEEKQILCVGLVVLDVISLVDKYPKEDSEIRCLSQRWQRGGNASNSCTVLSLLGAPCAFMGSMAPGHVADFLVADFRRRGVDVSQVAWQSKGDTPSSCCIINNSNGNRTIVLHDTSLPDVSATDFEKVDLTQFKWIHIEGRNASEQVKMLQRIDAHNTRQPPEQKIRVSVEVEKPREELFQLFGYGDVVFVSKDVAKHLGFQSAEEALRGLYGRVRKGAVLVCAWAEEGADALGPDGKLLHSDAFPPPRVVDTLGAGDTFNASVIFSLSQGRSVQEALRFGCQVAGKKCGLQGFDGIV

The assay has as its target KHK—C (Homo sapiens (Human), UniProt P50053). Briefly: KHK—C ADP-Glo kinase inhibitory activity assay. It is filed as biochemical. The settings on record: 1 nM KHK—C, 200 μM D-Fructose, 100 μM ATP, ADP-Glo luminescence. From the text:
(KHK—C ADP-Glo Kinase Inhibitory Activity Assay)
Y=Bottom+(Top−Bottom)/(1+10^((LogIC50−X)×HillSlope)) • X: Log value of compound concentration • Y: Inhibition ratio (%)
[formula] • Negative control: DMSO
On the technique in general: ADP-Glo turns the ADP formed in a reaction into a luminescent signal.
As for `C[C@H]1CCN1c1nc(N2CC3(C2)CS(=O)(=O)C3)cc(C(F)(F)F)c1C(N)=O` [Example 17, (S)-6-(2,2-dioxa-2-thioxa-6-azaspiro[3.3]heptan-6-yl)-2-(2-methylazetidine-1-yl)-4-(trifluoromethyl)nicotinamide], the half-inhibitory concentration (IC50) is above 10000 nM.
The figure for `C[C@H]1CCN1c1nc(N2CC3(CC(CC(=O)O)C3)C2)cc(C(F)(F)F)c1C#N` [Example 9, (S)-2-(2-(5-cyano-6-(2-methylazetidine-1-yl)-4-(trifluoromethyl)pyridin-2-yl)-2-azaspiro[3.3]heptan-6-yl)acetic acid] is 27 nM; for `CN[C@@H]1CN(c2nc(N3CC4(CC(C(=O)O)C4)C3)c3c(n2)C(F)(F)CC3)[C@H]1C` [Example 29, 2-(7,7-difluoro-2-((2S,3R)-2-methyl-3-(methylamino)azetidine-1-yl)-6,7-dihydro-5H-cyclopentadiene[d]pyrimidin-4-yl)-2-azaspiro[3.3]heptan-6-carboxylic acid] it is above 10000 nM.
Consider `C[C@H]1CCN1c1nc(N2CCC(CCC(=O)O)C2)cc(C(F)(F)F)c1C#N` (stereo partly drawn) [Example 11, 3-(1-(5-cyano-6-((S)-2-methylazetidine-1-yl)-4-(trifluoromethyl)pyridin-2-yl)pyrrolidin-3-yl)propionic acid], for which inhibition was half-maximal at 12.6 nM (IC50). In other words, the double-digit nanomolar range.
Consider `C[C@H]1CCN1c1nc(N2CC3(CCC(C(=O)O)CC3)C2)cc(C(F)(F)F)c1C#N` [Example 2, (S)-2-(5-cyano-6-(2-methylazetidine-1-yl)-4-(trifluoromethyl)pyridin-2-yl)-2-azaspiro[3.5]nonan-7-carboxylic acid], for which the concentration for half-maximal inhibition (IC50) was 143 nM.
`C[C@H]1CCN1c1nc(N2CCC3(CC2)CC(C(=O)O)C3)cc(C(F)(F)F)c1C#N` [Example 3, (S)-7-(5-cyano-6-(2-methylazetidine-1-yl)-4-(trifluoromethyl)pyridin-2-yl)-7-azaspiro[3.5]nonan-2-carboxylic acid] had an IC50 of 115 nM. This IC50 and that of the compound before are within 1.5-fold of each other.
Turning to `C[C@H]1[C@H](O)CN1c1nc(N2CC3(CC(C(=O)O)C3)C2)cc(C(F)(F)F)c1C#N` [Example 5, 2-(5-cyano-6-((2S,3R)-3-hydroxy-2-methylazetidine-1-yl)-4-(trifluoromethyl)pyridin-2-yl)-2-azaspiro[3.3]heptan-6-carboxylic acid], the IC50 came out at 110 nM.
In turn, `C[C@H]1CCN1c1nc(N2C[C@@H]3[C@@H](CC(=O)O)[C@@H]3C2)cc2nc(C#N)cnc12` [Example 46, 2-((1R,5S,6R)-3-(2-cyano-5-((S)-2-methylazetidine-1-yl)pyridino[3,4-b]pyrazin-7-yl)-3-azabicyclo[3.1.0]hexan-6-yl)acetic acid] registered an IC50 of 30.2 nM.
As to `C[C@H]1CCN1c1nc(N2CC[C@H](CC(=O)O)C2)c2c(n1)C(F)(F)CC2` [Example 36, 2-((R)-1-(7,7-difluoro-2-((S)-2-methylazetidine-1-yl)-6,7-dihydro-5H-cyclopentadiene[d]pyrimidin-4-yl)pyrrolidin-3-yl)acetic acid], inhibition was half-maximal at 13.6 nM (IC50). This IC50 lies about 2.2-fold lower than the previous one.
As for `C[C@H]1CCN1c1nc(N2CC3(CC(C(=O)O)C3)C2)cc(C(F)(F)F)c1C#N` [Example 1, (S)-2-(5-cyano-6-(2-methylazetidine-1-yl)-4-(trifluoromethyl)pyridin-2-yl)-2-azaspiro[3.3]heptan-6-carboxylic acid], the IC50 is 27.9 nM.
Turning to `C[C@H]1CCN1c1nc(N2CC3(CC(C(=O)O)C3)C2)c2c(n1)C(F)(F)CC2` [Example 24, (S)-2-(7,7-difluoro-2-(2-methylazetidine-1-yl)-6,7-dihydro-5H-cyclopentadiene[d]pyrimidin-4-yl)-2-azaspiro[3.3]heptan-6-carboxylic acid], the 50% inhibitory concentration (IC50) came to 78.3 nM.
`C[C@H]1CCN1c1nc(N2CCC(CC(=O)O)C2)c2c(n1)C(F)(F)CC2` (stereo partly drawn) [Example 32, 2-(1-(7,7-difluoro-2-((S)-2-methylazetidine-1-yl)-6,7-dihydro-5H-cyclopentadiene[d]pyrimidin-4-yl)pyrrolidin-3-yl)acetic acid] gave an IC50 of 10.4 nM.
With `C[C@H]1CCN1c1nc(N2CC[C@@H](CCC(=O)O)C2)cc(C(F)(F)F)c1C#N` [Example 21, 3-((R)-1-(5-cyano-6-((S)-2-methylazetidine-1-yl)-4-(trifluoromethyl)pyridin-2-yl)pyrrolidin-3-yl)propionic acid] the figure was 81.2 nM.
Compound `C[C@H]1CCN1c1nc(N2CC3(CCC(C(=O)O)C3)C2)cc(C(F)(F)F)c1C#N` (stereo partly drawn) [Example 7, 2-(5-cyano-6-((S)-2-methylazetidine-1-yl)-4-(trifluoromethyl)pyridin-2-yl)-2-azaspiro[3.4]octan-6-carboxylic acid] had a concentration for half-maximal inhibition (IC50) of 36 nM. Against the preceding compound, the IC50 is about 2.3-fold lower.
In turn, `C[C@H]1CCN1c1nc(N2CC3(CCC(C(=O)O)C3)C2)c2c(n1)C(F)(F)CC2` (stereo partly drawn) [Example 27, 2-(7,7-difluoro-2-((S)-2-methylazetidine-1-yl)-6,7-dihydro-5H-cyclopentadiene[d]pyrimidin-4-yl)-2-azaspiro[3.4]octan-6-carboxylic acid] registered an IC50 of 59 nM.
Consider `C[C@H]1CCN1c1nc(N2CC(CC(=O)O)C2)c2c(n1)C(F)(F)CC2` [Example 25, (S)-2-(1-(7,7-difluoro-2-(2-methylazetidine-1-yl)-6,7-dihydro-5H-cyclopentadiene[d]pyrimidin-4-yl)azetidine-3-yl)acetic acid], for which 47 nM corresponded to half-maximal inhibition (IC50).
As for `C[C@H]1[C@H](O)CN1c1nc(N2CC3(CC(C(=O)O)C3)C2)c2c(n1)C(F)(F)CC2` [Example 31, 2-(7,7-difluoro-2-((2S,3R)-3-hydroxy-2-methylazetidine-1-yl)-6,7-dihydro-5H-cyclopentadiene[d]pyrimidin-4-yl)-2-azaspiro[3.3]heptan-6-carboxylic acid], the IC50 was 134 nM.
In turn, `C[C@H]1CCN1c1nc(N2CC3CN(CC(=O)O)CC3C2)c2c(n1)C(F)(F)CC2` (stereo partly drawn) [Example 35, 2-(5-(7,7-difluoro-2-((S)-2-methylazetidine-1-yl)-6,7-dihydro-5H-cyclopentadiene[c]pyrimidin-4-yl)hexahydropyrrolo[3,4-c]pyrrolo-2(1H)-yl)acetic acid] registered an IC50 of 142 nM.
For the compound `C[C@H]1CCN1c1nc(N2CC3(CC(CC(=O)O)C3)C2)c2c(n1)C(F)(F)CC2` [Example 34, (S)-2-(2-(7,7-difluoro-2-(2-methylazetidine-1-yl)-6,7-dihydro-5H-cyclopentadiene[d]pyrimidin-4-yl)-2-azaspiro[3.3]heptan-6-yl)acetic acid], it took 40 nM to reach half-maximal inhibition (IC50). This IC50 lies about 3.5-fold lower than the previous one.
`C[C@H](C(=O)O)[C@H]1[C@@H]2CN(c3cc(C(F)(F)F)c(C#N)c(N4CC[C@@H]4C)n3)C[C@@H]21` [Example 19, (S)-2-((1R,5S,6R)-3-(5-cyano-6-((S)-2-methylazetidine-1-yl)-4-(trifluoromethyl)pyridin-2-yl)-3-azabicyclo[3.1.0]hexan-6-yl)propionic acid] displayed an IC50 of 24.7 nM.
As to `CO[C@@H]1CN(c2nc(N3CC4(CC(C(=O)O)C4)C3)c3c(n2)C(F)(F)CC3)[C@H]1C` [Example 30, 2-(7,7-difluoro-2-((2S,3R)-3-methoxy-2-methylazetidine-1-yl)-6,7-dihydro-5H-cyclopentadiene[d]pyrimidin-4-yl)-2-azaspiro[3.3]heptan-6-carboxylic acid], the half-maximal inhibitory concentration (IC50) is above 10000 nM.
Turning to `C[C@H]1CCN1c1nc(N2CCC(CC(=O)O)CC2)c2c(n1)C(F)(F)CC2` [Example 33, (S)-2-(1-(7,7-difluoro-2-(2-methylazetidine-1-yl)-6,7-dihydro-5H-cyclopentadiene[d]pyrimidin-4-yl)piperidin-4-yl)acetic acid], the IC50 is 52.8 nM.
As to `C[C@H]1CCN1c1nc(N2CCC3(CC(C(=O)O)C3)C2)cc(C(F)(F)F)c1C(N)=O` (stereo partly drawn) [Example 16, (S)-6-(5-aminoformyl-6-(2-methylazetidine-1-yl)-4-(trifluoromethyl)pyridin-2-yl)-6-azaspiro[3.4]octan-2-carboxylic acid], the half-maximal inhibitory concentration (IC50) stood at 6300 nM.
The compound `C[C@H]1CCN1c1nc(N2CC[C@H](CCC(=O)O)C2)cc(C(F)(F)F)c1C#N` [Example 20, 3-((S)-1-(5-cyano-6-((S)-2-methylazetidine-1-yl)-4-(trifluoromethyl)pyridin-2-yl)pyrrolidin-3-yl)propionic acid] returned an IC50 of 15.4 nM.
As to `C[C@H]1CCN1c1nc(N2CC[C@H](CC(=O)O)C2)cc2nccnc12` [Example 41, 2-((R)-1-(5-((S)-2-methylazetidine-1-yl)pyridino[3,4-b]pyrazin-7-yl)pyrrolidin-3-yl)acetic acid], the half-inhibitory concentration (IC50) was 3940 nM.
With `C[C@H]1CCN1c1nc(N2CCC3(CC(C(=O)O)C3)C2)c2c(n1)C(F)(F)CC2` (stereo partly drawn) [Example 26, (S)-6-(7,7-difluoro-2-(2-methylazetidine-1-yl)-6,7-dihydro-5H-cyclopentadiene[d]pyrimidin-4-yl)-6-azaspiro[3.4]octan-2-carboxylic acid] the figure was 42.9 nM; with `C[C@H]1CCN1c1nc(N2C[C@@H]3[C@@H](CC(=O)O)[C@@H]3C2)cc(C(F)(F)F)c1C#N` [Example 8, 2-((1R,5S,6R)-3-(5-cyano-6-((S)-2-methylazetidine-1-yl)-4-(trifluoromethyl)pyridin-2-yl)-3-azabicyclo[3.1.0]hexan-6-yl)acetic acid], 0.17 nM.
As to `C[C@H]1CCN1c1nc(N2CC3(C2)CS(=O)(=O)C3)cc(C(F)(F)F)c1C#N` [Example 4, (S)-6-(2,2-dioxa-2-thioxa-6-azaspiro[3.3]heptan-6-yl)-2-(2-methylazetidine-1-yl)-4-(trifluoromethyl)nicotinonitrile], the midpoint of inhibition, the IC50, lay at 198 nM.
For the compound `CC(C(=O)O)[C@H]1[C@@H]2CN(c3cc(C(F)(F)F)c(C#N)c(N4CC[C@@H]4C)n3)C[C@@H]21` (stereo partly drawn) [Example 10, (R)-2-((1R,5S,6R)-3-(5-cyano-6-((S)-2-methylazetidine-1-yl)-4-(trifluoromethyl)pyridin-2-yl)-3-azabicyclo[3.1.0]hexan-6-yl)propionic acid], 12.6 nM corresponded to half-maximal inhibition (IC50).
